The values that follow come from patent publication US20230150951A1, “2,5- OR 2,6-DISUBSTITUTED HYDROQUINONE DERIVATIVES WITH AT LEAST ONE CARBOXY, SULFO OR AMIDO GROUP USEFUL AS MEDICAMENTS” (OM PHARMA SA, priority 2020, published 2023).

Holding throughout (assay type): cell-based
The target in one assay is T1, VEGFR-2 (Homo sapiens, UniProt P35968).
T1 construct: endogenous in cells; host or cells: primary HUVEC
Description: VEGF-165 induced phosphorylation of VEGF-Receptor on HUVEC. To be noted: HUVEC preincubated 60 min, VEGF165 25 ng/mL 2 min; read-out: VEGFR-Phosphorylation inhibition IC50. As for the experimental part: Cell culture: Primary human umbilical vein endothelial cells (HUVECs) were routinely cultured in 0.1% gelatin pre-coated flasks or dishes, up to passage 6. […]
Rabbit primary antibodies for VEGFR-2, p-Tyr1175 were acquired from Cell Signaling Technology (Leiden, The Netherlands). Phospho-VEGFR-2 (Tyr1175) Sandwich ELISA Kit was from Cell Signaling Technology.
[…] Western blot analysis was performed using anti-phospho-VEGFR-2 antibody and total VEGFR-2 was used as a loading control after membrane stripping.
Inhibition of VEGFR-2-phosphorylation results are expressed as IC50 in microM [μM] versus VEGF-treated HUVECs control without inhibitory compound.

In the next assay the target is T2, VEGF-A (Homo sapiens, UniProt P15692).
T2 construct: purchased ProQinase GmbH
T2 sequence (P15692 27-191 isoform P15692-4): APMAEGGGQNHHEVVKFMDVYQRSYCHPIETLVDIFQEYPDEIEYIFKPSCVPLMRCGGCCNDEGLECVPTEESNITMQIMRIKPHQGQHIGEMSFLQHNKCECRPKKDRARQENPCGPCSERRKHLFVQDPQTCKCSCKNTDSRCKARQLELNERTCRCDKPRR
The assay is described as follows: VEGF-A induced sprouting of HUVEC, spheroid-based cellular angiogenesis assay. The note with it: VEGF-A 25 ng/mL preincubated with compound, 24 h, read-out: VEGF-A1 IC50. The protocol: (§1) Aim of this in vitro method is to assess compounds effects on FGF-2, FGF-1, or VEGF-A induced sprouting of human umbilical vein endothelial cells (HUVEC) in the spheroid-based cellular angiogenesis assay. Before adding the growth factors to the cells, they were preincubated with the compound. Sunitinib was tested as a control (without preincubation).
(§2) IC50 values determined for the tested compounds are expressed in microM [μM] and the values for the inhibition of FGF-1, FGF2 and VEGF-A induced growth (sprouting) are listed after each compound in the examples after chemical characterization.
(§3) Sprouting test was performed on the compounds dissolved in DMSO to reach 100-fold concentrated stock solutions and dissolved in culture media. Sunitinib as reference compound was provided by ProQinase GmbH. Growth factors were purchased from rhFGF-basic (FGF-2), Peprotech, New Jersey, USA, #100-18C, Lot #0415571; rhFGF-acidic (FGF-1), Peprotech, New Jersey, USA, #100-17A, Lot #031207; hVEGF-A165 (ProQinase GmbH, Freiburg, Germany; 05.02.2010) were used for stimulation of HUVEC cells growth.
(§4) Test system: Endothelial cells from human umbilical vein (HUVEC) from pooled donors were stored frozen with 70% medium, 20% FCS, 10% DMSO at about 1×10^6 cells/ampoule. HUVEC cells, primary human umbilical vein endothelial cells (PromoCell, Heidelberg, Germany), were used after passage 3 to 4. Morphology of the cells are adherent, cobblestone-like growing as monolayer and were cultured in endothelial cell growth and basal medium (ECGM/ECBM, PromoCell). The subculture was split 1:3; every 3-5 days, seed out at ca. 1×10^4 cells/cm^2 and incubated at 37° C. with 5% CO2 with a doubling time 24-48 hours
(§5) Dilution of test compounds: 100× concentrated solutions (concerning to the final assay concentrations) of each test compound were prepared with the appropriate solvent (in DMSO or in water). These 100×compound solutions were further diluted in endothelial cell growth and basal medium (ECBM) 1:7.5 to get a 13.33× concentrated solution. 75 μl of the 13.33×solution was subsequently mixed with 25 μl of 40× concentrated stimulus (solved in ECBM), resulting in a 10×concentrated stimulus/compound mixture. This mixture (100 μl) was incubated for 30 min at 37° C. and then added to 900 μl gel, containing the HUVEC spheroids (resulting in the final assay concentration).
(§6) Test method: the experiments were pursued in modification of the originally published protocol (Korff and Augustin: J Cell Sci 112: 3249-58, 1999). In brief, spheroids were prepared as described (Korff and Augustin: J Cell Biol 143: 1341-52, 1998) by pipetting 400 HUVEC in a hanging drop on plastic dishes to allow overnight spheroid aggregation. 50 HUVEC spheroids were then seeded in 0.9 ml of a collagen gel and pipetted into individual wells of a 24 well plate to allow polymerization. The test compounds were preincubated with the growth factors (FGF-1, FGF-2 or VEGF-A final concentration 25 ng/mL) in a 10-fold concentrated solution and subsequently, 100 μl of this solution was added on top of the polymerized gel. All compounds were diluted in solvent (DMSO or water) as 100×stocks first (which means 100×stocks of each final assay concentration were prepared in solvent). Subsequently, these stocks were further diluted in medium (resulting in the 13.33×stocks of each final assay concentration) with final concentrations tested: 100, 50, 25, 12.5, 6.25, 3.13 and 1.56×10^−6 M). Plates were incubated at 37° C. for 24 hours and fixed by adding 4% PFA (Roth, Karlsruhe, Germany).
(§7) Quantification of growth factor inhibition: sprouting intensity of HUVEC spheroids treated with the growth factor and the inhibitors were quantitated by an image analysis system determining the cumulative sprout length per spheroid (CSL).

For another assay, the target named is T3, FGF-2 (Homo sapiens, UniProt P09038).
T3 construct: purchased Peprotech 100-18C
Description: FGF-2 induced sprouting of HUVEC, spheroid-based cellular angiogenesis assay. To be noted: FGF-2 25 ng/mL preincubated with compound, 24 h. As for the experimental part: as §1, §2, §3, §4, §5, §6, §7

In assay [1] the test system is Human neutrophils. The assay is described as follows: Neutrophil adhesion under static conditions. To be noted: fMLP-stimulated adhesion to fibrinogen; method: 40 μM and 80 μM, concentration of the value not stated. The protocol: Human neutrophils obtained from buffy coats of healthy donors were suspended at 3×10^6/ml in adhesion buffer (PBS containing 1 mM CaCl2)/MgCl2 and 10% FCS, pH 7.2). Neutrophils were preincubated for 30 min at 37° C. with 40 μM and 80 μM of the compounds.
Adhesion assays were performed on 18-well glass slides coated for 18 h at 4° C. with human fibrinogen (20 μg/well in endotoxin-free PBS); 20 μl of cell suspension were added to each well and stimulated for 1 min at 37° C. with 5 μl of fMLP 1 nM final concentration. After washing, adherent cells were fixed in glutaraldehyde 1.5% in PBS and counted by computer-assisted enumeration. Statistical analysis was performed by calculating mean and standard deviation (SD); significance was calculated by unpaired t-test. All statistical analyses were performed using GraphPad Prism 6 (GraphPad Software).

Assay [2] has as its system Human neutrophils. The assay is described as follows: Inhibition of ROS production in human neutrophils (isoluminol chemiluminescence). To be noted: fMLP+TNF-α stimulated PMN; for inhibition at 0.3 µM / IC50: Homo sapiens, Neutrophil. The source says: NADPH oxidase, located in the plasma membrane and in the membranes of specific granules, produces superoxide anions from which other ROS, such as hydrogen peroxide, singlet oxygen, hypochlorite, and active hydroxyl radicals. ROS are released into the surrounding medium or into a membrane-enclosed subcellular organelle. One quick and sensitive method for measuring the generation of these metabolites is chemiluminescence (CL). Isoluminol amplified CL technique, is very sensitive and widely used to study respiratory burst (mainly extracellular production of ROS) induced in neutrophils.
Human neutrophils were isolated from buffy coats which obtained from healthy donors. The isolated neutrophils (3×10^6/ml) were suspended in Hanks' Balanced Salt Solution (HBSS) with Calcium and Magnesium. Neutrophils were pre-incubated with the compounds at different concentrations (0.1, 0.3, 1, 3 and 10 μM) for 30 min at 37° C. The black 96-well cell culture plates were coated with human fibrinogen (0.25 mg/ml in PBS), and incubated overnight at 4° C. or 2 hr at 37° C. Then the plates were washed with endotoxin-free PBS. The neutrophils were incubated (priming) with TNF-α (20 ng/ml) for 10 minutes at 37° C. Thereupon the 75 μl of cell suspension and 75 μl (Isoluminol+HRP solution) were added to each well. The chemiluminescence was recorded (every 25 sec for 250 sec) after fMLP (1 μM) activation using a Multilabel Reader victor3 (Perkin Elmer, USA). Background values, defined as the mean chemiluminescent values of isoluminol diluted in HBSS, were subtracted from all readings (CPS, count per second). The assays were done in duplicate or triplicate.

The target of another assay is T4, FGF-1 (Homo sapiens, UniProt P05230).
T4 construct: purchased Peprotech 100-17A
The assay is described as follows: FGF-1 induced sprouting of HUVEC, spheroid-based cellular angiogenesis assay. To be noted: FGF-1 25 ng/mL preincubated with compound, 24 h. The protocol:
as §1, §2, §3, §4, §5, §6, §7

T3 sequence (P09038 134-288): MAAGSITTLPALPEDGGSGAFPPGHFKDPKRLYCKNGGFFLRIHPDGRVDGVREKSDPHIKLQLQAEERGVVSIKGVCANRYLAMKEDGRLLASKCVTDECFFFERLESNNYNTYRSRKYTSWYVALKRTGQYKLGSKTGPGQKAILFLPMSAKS
T4 sequence (P05230 whole entry): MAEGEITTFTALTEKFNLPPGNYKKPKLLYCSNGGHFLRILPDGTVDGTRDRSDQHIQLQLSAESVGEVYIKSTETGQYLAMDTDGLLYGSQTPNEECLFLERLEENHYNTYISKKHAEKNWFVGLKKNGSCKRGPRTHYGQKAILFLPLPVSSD
T1 sequence (P35968 20-1356): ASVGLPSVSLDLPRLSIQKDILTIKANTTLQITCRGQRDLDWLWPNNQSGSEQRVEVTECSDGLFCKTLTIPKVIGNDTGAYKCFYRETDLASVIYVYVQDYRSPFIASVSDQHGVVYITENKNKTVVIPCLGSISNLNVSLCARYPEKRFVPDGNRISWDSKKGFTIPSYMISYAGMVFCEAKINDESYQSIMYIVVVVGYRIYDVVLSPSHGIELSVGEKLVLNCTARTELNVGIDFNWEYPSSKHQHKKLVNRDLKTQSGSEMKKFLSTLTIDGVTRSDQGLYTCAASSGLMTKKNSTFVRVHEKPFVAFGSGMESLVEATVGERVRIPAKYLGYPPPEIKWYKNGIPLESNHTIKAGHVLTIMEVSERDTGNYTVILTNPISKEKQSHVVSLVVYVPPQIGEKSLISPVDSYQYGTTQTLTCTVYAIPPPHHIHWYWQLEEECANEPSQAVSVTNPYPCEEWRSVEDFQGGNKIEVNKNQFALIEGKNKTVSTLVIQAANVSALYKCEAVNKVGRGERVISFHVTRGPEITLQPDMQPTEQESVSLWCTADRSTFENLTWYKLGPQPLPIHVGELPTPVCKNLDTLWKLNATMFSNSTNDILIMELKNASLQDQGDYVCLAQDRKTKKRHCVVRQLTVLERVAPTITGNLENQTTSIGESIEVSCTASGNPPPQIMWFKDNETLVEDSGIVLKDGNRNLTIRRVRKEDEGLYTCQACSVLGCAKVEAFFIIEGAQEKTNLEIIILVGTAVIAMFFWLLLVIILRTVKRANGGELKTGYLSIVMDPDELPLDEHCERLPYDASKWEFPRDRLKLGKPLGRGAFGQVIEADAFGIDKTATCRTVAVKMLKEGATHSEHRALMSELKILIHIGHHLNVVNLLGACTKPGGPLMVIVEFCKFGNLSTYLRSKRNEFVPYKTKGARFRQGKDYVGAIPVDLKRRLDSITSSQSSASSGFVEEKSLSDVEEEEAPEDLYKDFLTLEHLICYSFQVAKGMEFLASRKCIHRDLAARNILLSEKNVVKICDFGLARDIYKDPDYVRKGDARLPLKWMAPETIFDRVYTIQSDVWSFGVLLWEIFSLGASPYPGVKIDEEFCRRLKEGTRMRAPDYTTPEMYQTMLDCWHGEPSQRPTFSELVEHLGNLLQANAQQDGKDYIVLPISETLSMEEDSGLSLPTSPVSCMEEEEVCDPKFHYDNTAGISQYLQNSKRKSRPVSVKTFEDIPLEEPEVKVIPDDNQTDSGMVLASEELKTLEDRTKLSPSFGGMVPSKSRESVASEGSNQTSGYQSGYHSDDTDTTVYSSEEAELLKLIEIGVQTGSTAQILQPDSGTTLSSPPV

Turning to `CCOC(=O)Cc1cc(O)c(C(=O)Nc2cc(C(=O)OCC)cc(C(=O)OCC)c2)cc1O` [IIIa-015a-E3, diethyl 5-(4-(ethoxycarbonylmethyl)-2,5-dihydroxybenzamido)isophthalate], the IC50 (usually the concentration that inhibits the measured activity by half) at VEGFR-2 amounted to 7.2 µM; on VEGF-A it was 87 µM; on FGF-2, 191 µM. The compound also came in with a Neutrophil adhesion inhibition with Human neutrophils [1] of 61.22%. Also, 0.3 µM produced 91.4% inhibition in the assay with Human neutrophils [2] (0.3 μM).

In the case of `O=C(O)c1cc(O)c(C(=O)NC(C(=O)O)c2ccc(O)c(O)c2)cc1O` (stereo not shown) [Ia-036a, 4-(Carboxy(3,4-dihydroxyphenyl)methylaminocarbonyl)-2,5-dihydroxybenzoic acid], the IC50 at VEGFR-2 was found to be 1.6 µM; on VEGF-A it was 123 µM; at FGF-2, 37 µM. The Neutrophil adhesion inhibition in the assay with Human neutrophils [1] was determined as 30.77%. The “PMN ROS inhibition at 0.3 μM” value in the assay on Human neutrophils [2] (0.3 μM) was found to be 87.17%.

Turning to `O=C(O)c1cc(O)c(COCc2cc(O)c(C(=O)O)cc2O)cc1O` [IIIc-060a, 4-((2,5-Dihydroxy-4-carboxyphenyl)methoxymethyl)-2,5-dihydroxybenzoic acid], the IC50 at VEGFR-2 stood at 1.3 µM; on VEGF-A, 114 µM; on FGF-2, 51 µM. For the same compound, the Neutrophil adhesion inhibition with Human neutrophils [1] was 41.38%. Besides, the inhibition (in general, the drop in the measured response relative to a control, in per cent) at 0.3 µM with Human neutrophils [2] (0.3 μM) is 86.8%.

Turning to `O=C(O)c1cc(O)c(C(=O)Nc2cnccc2C(=O)O)cc1O` [Ia-023a, 3-(4-carboxy-2,5-dihydroxybenzamido)isonicotinic acid], the IC50 on VEGFR-2 was not below 100 µM; on VEGF-A, 143 µM; on FGF-2, 63 µM. Besides, the Neutrophil adhesion inhibition with Human neutrophils [1] is on record as 13.37%. Further, the inhibition at 0.3 µM in the assay on Human neutrophils [2] (0.3 μM) was determined as 62%.

In the case of `O=C(O)c1cc(O)cc(C(=O)Nc2ccccc2-c2nnn[nH]2)c1O` [IIa-001a-Tz, 3-(2-(1H-tetrazol-5-yl)phenylaminocarbonyl)-2,5-dihydroxybenzoic acid], the values for the IC50 at VEGF-A and on FGF-2 were 187 µM and 9.8 µM, respectively. Also, the Neutrophil adhesion inhibition with Human neutrophils [1] was found to be 24.18%. The compound also displayed an inhibition at 0.3 µM with Human neutrophils [2] (0.3 μM) of 74.2%.

As to `O=C(O)c1cc(O)cc(C(=O)Nc2cccc(C(=O)O)c2C(=O)O)c1O` [IIa-011a, 3-(3-carboxy-2,5-dihydroxybenzamido)phthalic acid], the IC50 at FGF-1 was 141 µM; at VEGFR-2, not below 100 µM; at FGF-2, 123 µM; with Human neutrophils [2], 1.18 µM. The compound further showed a Neutrophil adhesion inhibition with Human neutrophils [1] of 26%. Also, the inhibition at 0.3 µM with Human neutrophils [2] (0.3 μM) was found to be 58.1%.

Take `CCOC(=O)c1cc(O)c(C(=O)Nc2ccc(O)c(C(=O)OC)c2)cc1O` [Ia-004a-E2, ethyl 2,5-dihydroxy-4-(4-hydroxy-3-(methoxycarbonyl)phenylaminocarbonyl)benzoate]: the values for the IC50 at FGF-1, at VEGFR-2 and at FGF-2 were 35 µM, 6.1 µM and 36 µM, respectively. Also, in the assay with Human neutrophils [1], the Neutrophil adhesion inhibition turned out to be 97.65%. The inhibition at 0.3 µM in the assay with Human neutrophils [2] (0.3 μM) was determined as 85.3%.

Turning to `O=C(O)c1cc(O)c(C(=O)NCc2ccc(O)c(O)c2)cc1O` [Ia-035a, 4-(3,4-Dihydroxyphenylmethylaminocarbonyl)-2,5-dihydroxybenzoic acid], the IC50 on FGF-1 stood at 20 µM; on VEGFR-2 it was 36 µM; at FGF-2, 71 µM; with Human neutrophils [2], 0.41 µM. Also, the Neutrophil adhesion inhibition with Human neutrophils [1] is reported as 27%. The same compound displayed an inhibition at 0.3 µM with Human neutrophils [2] (0.3 μM) of 75.1%.

Consider `O=C(O)c1cc(NC(=O)c2cc(O)cc(C(=O)O)c2O)ccc1O` [IIa-004a, 3-(3-carboxy-4-hydroxyphenylaminocarbonyl)-2,5-dihydroxybenzoic acid], for which the IC50 on FGF-1 is 47 µM; on VEGFR-2, not below 100 µM; on FGF-2 it was 33 µM; with Human neutrophils [2], 1 µM. Also, in the assay on Human neutrophils [1], the Neutrophil adhesion inhibition worked out at 36%. Moreover, in the assay on Human neutrophils [2] (0.3 μM), 0.3 µM produced 63.5% inhibition.

Take `O=C(O)c1ccccc1NC(=O)c1cc(O)cc(C(=O)O)c1O` [IIa-001a, 3-(2-carboxyphenylaminocarbonyl)-2,5-dihydroxybenzoic acid]: the IC50 on FGF-1 is 8.6 µM; at VEGFR-2, not below 100 µM; at FGF-2, 11 µM; in the assay on Human neutrophils [2] it was 0.408 µM. The compound also yielded a Neutrophil adhesion inhibition with Human neutrophils [1] of 36.24%. In the assay with Human neutrophils [2] (0.3 μM), this compound showed an inhibition at 0.3 µM of 30.5%.

As to `O=C(O)c1ccc(C(=O)O)c(NC(=O)c2cc(O)cc(C(=O)O)c2O)c1` [IIa-012a, 2-(3-carboxy-2,5-dihydroxybenzamido)terephthalic acid], the IC50 at VEGFR-2 amounted to 3.31 µM; at VEGF-A, 32 µM; in the assay on Human neutrophils [2], 0.313 µM. In the assay with Human neutrophils [1], this compound displayed a Neutrophil adhesion inhibition of 7.5%. In addition, testing at 0.3 µM in the assay on Human neutrophils [2] (0.3 μM) gave an inhibition of 44.8%.
